Results published in PMC13064811, “The Role of Disulfide Bonds in the GluN1 Subunit in the Early Trafficking and Functional Properties of GluN1/GluN2 and GluN1/GluN3 NMDA Receptors” (The Journal of Neuroscience, 2026).
Read-outs that look alike come from different tables or passages of the source.

Tests used:
[1] = system: GluN1-C79S-C308S/GluN2A receptors; conditions: cited from earlier work
GluN1-C455S/GluN2B = conditions: cited from earlier work
[2] = target: GluN1-C744Y/GluN2A receptors; conditions: cited from earlier work
GluN1-C436S/GluN2B = conditions: cited from earlier work
YFP-hGluN1-1a/hGluN2A = YFP-hGluN1-1a/hGluN2A (Homo sapiens, UniProt Q05586+Q12879); format: cell-based
[3] = target: YFP-hGluN1-1a-C744Y/hGluN2B (Homo sapiens, UniProt Q05586+Q13224, C744Y); format: cell-based
YFP-hGluN1-1a/hGluN2B = YFP-hGluN1-1a/hGluN2B (Homo sapiens, UniProt Q05586+Q13224); format: cell-based
GluN1-C454S/GluN2B = conditions: cited from earlier work
[4] = target: YFP-hGluN1-1a-C744Y/hGluN2A (Homo sapiens, UniProt Q05586+Q12879, C744Y); format: cell-based
[5] = system: YFP-hGluN1-1a-C744Y/hGluN3A
[6] = system: YFP-GluN1-1a-C744S-C798S/GluN3A
hGluN1-4a/hGluN2A = target: T1, hGluN1-4a/hGluN2A (Homo sapiens, UniProt Q05586+Q12879); format: cell-based; conditions: for effect on peak current amplitudes (redox sensitivity): pretreatment with 4 mM DTT or 0.5 mM DTNB, each for 2 min
T1 construct: GluN1-4a (hGluN1-4a; NP_000823.4); GluN2A (hGluN2A; NP_001127879.1); expressed in transfected cells; host or cells: HEK293T

hGluN1-4a-C744Y/hGluN2A = target: T2, hGluN1-4a-C744Y/hGluN2A (Homo sapiens, UniProt Q05586+Q12879, C744Y); format: cell-based; conditions: for effect on peak current amplitudes (redox sensitivity): pretreatment with 4 mM DTT or 0.5 mM DTNB, each for 2 min
T2 construct: GluN1-4a (hGluN1-4a; NP_000823.4); GluN2A (hGluN2A; NP_001127879.1); expressed in transfected cells; host or cells: HEK293T

[7] = system: YFP-hGluN1/hGluN2A receptors; format: cell-based, rat
[8] = system: YFP-hGluN1/hGluN2B receptors; format: cell-based, rat
hGluN1-4a/hGluN2B [9] = target: T3, hGluN1-4a/hGluN2B (Homo sapiens, UniProt Q05586+Q13224); format: cell-based; conditions: pretreatment with 4 mM DTT or 0.5 mM DTNB, each for 2 min
T3 construct: GluN1-4a (hGluN1-4a; NP_000823.4); GluN2B (hGluN2B; NP_000825.2); expressed in transfected cells; host or cells: HEK293T

hGluN1-4a-C744Y/hGluN2B = target: T4, hGluN1-4a-C744Y/hGluN2B (Homo sapiens, UniProt Q05586+Q13224, C744Y); format: cell-based
T4 construct: GluN1-4a (hGluN1-4a; NP_000823.4); GluN2B (hGluN2B; NP_000825.2); expressed in transfected cells; host or cells: HEK293T

[10] = system: hippocampal neurons expressing YFP-hGluN1-1a or YFP-hGluN1-1a-C744Y subunits; experiment: NMDA-induced excitotoxicity assay; format: cell-based, rat; conditions: 10 µM memantine; death induced by 30 µM NMDA and 10 µM glycine
hGluN1-4a/hGluN2B [11] = target: T3, hGluN1-4a/hGluN2B; parameters: method as in Konecny et al., 2024; conditions: ref Konecny et al., 2024, cited from earlier work
[12] = target: YFP-GluN1-4a-C436S-C455S/GluN2B (Rattus norvegicus, UniProt P35439+Q00960, C436S/C455S)
YFP-GluN1-1a/GluN2B = YFP-GluN1-1a/GluN2B (Rattus norvegicus, UniProt P35439+Q00960)
[13] = target: GluN1-4a-C436S-C455S/GluN2A (Rattus norvegicus, UniProt P35439+Q00959, C436S/C455S)
YFP-GluN1-1a/GluN2A = YFP-GluN1-1a/GluN2A (Rattus norvegicus, UniProt P35439+Q00959)
[14] = target: GluN1-4a-C79S-C308S/GluN2A (Rattus norvegicus, UniProt P35439+Q00959, C308S/C79S)
[15] = target: GluN1-4a-C744S-C798S/GluN2B (Rattus norvegicus, UniProt P35439+Q00960, C744S/C798S)
[16] = target: YFP-GluN1-1a-C744S-C798S/GluN2A (Rattus norvegicus, UniProt P35439+Q00959, C744S/C798S)
[17] = target: YFP-GluN1-1a-C79S-C308S/GluN2B (Rattus norvegicus, UniProt P35439+Q00960, C308S/C79S)
[18] = target: YFP-GluN1-1a-C79S-C308S/GluN2A (Rattus norvegicus, UniProt P35439+Q00959, C308S/C79S)
[19] = target: YFP-GluN1-1a-C420S-C454S/GluN2B (Rattus norvegicus, UniProt P35439+Q00960, C420S/C454S)
[20] = target: GluN1-4a-C420S-C454S/GluN2A (Rattus norvegicus, UniProt P35439+Q00959, C420S/C454S)
[21] = target: GluN1-4a-C79S-C308S/GluN2B (Rattus norvegicus, UniProt P35439+Q00960, C308S/C79S)
[22] = target: YFP-GluN1-4a-C436S-C455S/GluN2A (Rattus norvegicus, UniProt P35439+Q00959, C436S/C455S)
[23] = target: YFP-GluN1-1a-C420S-C454S/GluN2A (Rattus norvegicus, UniProt P35439+Q00959, C420S/C454S)
GluN1-4a/GluN2B = GluN1-4a/GluN2B (Rattus norvegicus, UniProt P35439+Q00960)
[24] = target: YFP-GluN1-1a-C744S-C798S/GluN2B (Rattus norvegicus, UniProt P35439+Q00960, C744S/C798S)
GluN1-4a/GluN2A = GluN1-4a/GluN2A (Rattus norvegicus, UniProt P35439+Q00959)
[25] = target: GluN1-4a-C436S-C455S/GluN2B (Rattus norvegicus, UniProt P35439+Q00960, C436S/C455S)
[26] = target: GluN1-4a-C744S-C798S/GluN2A (Rattus norvegicus, UniProt P35439+Q00959, C744S/C798S)
[27] = read-out: EC50 value for glycine
[28] = 1 mM L-glutamate and 100 µM glycine, −60 mV
[29] = offset of inhibition, 1 mM glutamate and 100 µM glycine
[30] = onset of inhibition, 1 mM glutamate and 100 µM glycine

T2 sequence (Q12879 23-1464, other chains not shown): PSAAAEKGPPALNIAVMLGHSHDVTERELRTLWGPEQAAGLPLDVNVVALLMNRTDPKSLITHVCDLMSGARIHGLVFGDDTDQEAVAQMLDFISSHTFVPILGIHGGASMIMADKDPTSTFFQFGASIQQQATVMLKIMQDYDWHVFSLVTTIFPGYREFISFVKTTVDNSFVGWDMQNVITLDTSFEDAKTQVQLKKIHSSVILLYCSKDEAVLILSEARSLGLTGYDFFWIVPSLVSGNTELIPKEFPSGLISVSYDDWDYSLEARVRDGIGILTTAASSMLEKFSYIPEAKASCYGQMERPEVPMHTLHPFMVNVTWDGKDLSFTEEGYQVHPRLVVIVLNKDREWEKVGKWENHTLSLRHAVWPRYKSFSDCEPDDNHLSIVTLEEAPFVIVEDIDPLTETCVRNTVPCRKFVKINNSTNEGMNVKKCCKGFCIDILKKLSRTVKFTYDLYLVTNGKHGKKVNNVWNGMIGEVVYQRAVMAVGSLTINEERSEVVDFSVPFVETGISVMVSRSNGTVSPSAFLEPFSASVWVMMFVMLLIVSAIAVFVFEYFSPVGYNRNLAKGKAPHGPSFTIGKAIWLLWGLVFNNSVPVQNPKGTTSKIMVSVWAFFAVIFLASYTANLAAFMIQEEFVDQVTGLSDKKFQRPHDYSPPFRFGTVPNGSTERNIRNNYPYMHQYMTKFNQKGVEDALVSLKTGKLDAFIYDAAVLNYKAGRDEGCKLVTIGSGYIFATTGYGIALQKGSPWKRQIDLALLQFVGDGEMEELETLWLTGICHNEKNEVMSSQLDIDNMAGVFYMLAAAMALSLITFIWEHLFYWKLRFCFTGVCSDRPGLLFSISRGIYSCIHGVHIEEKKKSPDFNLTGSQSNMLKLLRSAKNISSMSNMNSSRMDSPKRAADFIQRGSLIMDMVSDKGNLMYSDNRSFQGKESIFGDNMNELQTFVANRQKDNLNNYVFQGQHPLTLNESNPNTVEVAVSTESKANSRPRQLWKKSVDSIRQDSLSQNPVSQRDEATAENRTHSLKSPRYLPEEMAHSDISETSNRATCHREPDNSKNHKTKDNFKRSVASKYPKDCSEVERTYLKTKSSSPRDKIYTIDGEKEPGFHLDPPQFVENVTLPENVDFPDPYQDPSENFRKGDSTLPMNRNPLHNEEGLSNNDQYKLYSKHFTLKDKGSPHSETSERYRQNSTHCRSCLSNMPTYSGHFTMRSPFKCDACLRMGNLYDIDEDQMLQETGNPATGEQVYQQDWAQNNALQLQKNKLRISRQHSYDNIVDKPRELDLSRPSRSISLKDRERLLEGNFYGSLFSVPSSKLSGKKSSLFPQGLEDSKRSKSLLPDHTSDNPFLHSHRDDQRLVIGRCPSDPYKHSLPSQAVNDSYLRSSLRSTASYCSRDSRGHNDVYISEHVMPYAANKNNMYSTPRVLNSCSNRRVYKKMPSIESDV
T1 sequence (Q12879 23-1464, other chains not shown): as above
Sequence of YFP-hGluN1-1a-C744Y/hGluN2A (Q12879 23-1464, other chains not shown): as above

CN[C@H](CC(=O)O)C(=O)O [NMDA]
increase of the EC50 value for NMDA [1]: ~25%

NCC(=O)O [glycine]
EC50 (GluN1-C455S/GluN2B; read-out: EC50 glycine): 250 nM
EC50 [2, 27]: 700 nM
h (Hill coefficient), glycine (YFP-GluN1-1a/GluN3A): 1.26 ± 0.15
EC50 (YFP-GluN1-1a/GluN3A; read-out: Glycine EC50): 52300 ± 13000 nM
EC50 (GluN1-C436S/GluN2B; read-out: EC50 glycine): 720 nM
Glycine h (Hill coefficient) (YFP-hGluN1-1a/hGluN2A): 1.46 ± 0.07
EC50 (YFP-hGluN1-1a/hGluN2A; read-out: Glycine EC50): 2910 ± 290 nM
Glycine h (Hill coefficient) [3]: 0.80 ± 0.03
EC50 ([3]; read-out: Glycine EC50): 590 ± 80 nM
Glycine h (Hill coefficient) (YFP-hGluN1-1a/hGluN2B): 0.83 ± 0.06
Glycine h (Hill coefficient) (YFP-hGluN1-1a/hGluN3A): 0.61 ± 0.02
EC50 (YFP-hGluN1-1a/hGluN3A; read-out: Glycine EC50): 70500 ± 10700 nM
EC50 (GluN1-C454S/GluN2B; read-out: EC50 glycine): 730 nM
Glycine h (Hill coefficient) [4]: 1.47 ± 0.08
EC50 ([4]; read-out: Glycine EC50): 3010 ± 410 nM
Glycine h (Hill coefficient) [5]: 0.75 ± 0.03
EC50 ([5]; read-out: Glycine EC50): 368000 ± 51000 nM
h (Hill coefficient), glycine [6]: 0.88 ± 0.09
EC50 ([6]; read-out: Glycine EC50): 213000 ± 30800 nM
EC50 [1, 27]: 2620 nM

O=C(O)c1cc(SSc2ccc([N+](=O)[O-])c(C(=O)O)c2)ccc1[N+](=O)[O-] [DTNB, 5,5′-dithiobis-(2-nitrobenzoic acid)]
effect on peak current amplitudes (redox sensitivity) (hGluN1-4a/hGluN2A): neither condition (DTT or DTNB) altered the peak current amplitudes
effect on peak current amplitudes (redox sensitivity) (hGluN1-4a-C744Y/hGluN2A): neither condition (DTT or DTNB) altered the peak current amplitudes

NC1=N[C@H](O)[C@H]2[C@H]3O[C@]4(O)O[C@@H]([C@@H](O)[C@@]2(N1)[C@@H]4O)[C@]3(O)CO [TTX, tetrodotoxin]
relative surface expression [7]: no alterations in the relative surface expression levels

CN1CCc2cc3c(cc2[C@H]1[C@@H]1OC(=O)c2c1ccc1c2OCO1)OCO3 [bicuculline]
relative surface expression [7]: no alterations in the relative surface expression levels
relative surface expression [8]: increased relative surface expression

O[C@@H](CS)[C@@H](O)CS (racemic) [DTT, dithiothreitol]
effect on peak current amplitudes (redox sensitivity) (hGluN1-4a/hGluN2A): neither condition (DTT or DTNB) altered the peak current amplitudes
effect on peak current amplitudes (redox sensitivity) (hGluN1-4a/hGluN2B [9]): reduced the peak current amplitudes
effect on peak current amplitudes (redox sensitivity) (hGluN1-4a-C744Y/hGluN2B; pretreatment with 4 mM DTT, 2 min): did not affect
effect on peak current amplitudes (redox sensitivity) (hGluN1-4a-C744Y/hGluN2A): neither condition (DTT or DTNB) altered the peak current amplitudes

CC12CC3CC(C)(C1)CC(N)(C3)C2 [memantine]
h (Hill coefficient), memantine (hGluN1-4a/hGluN2A; [28]): 1.04 ± 0.06
τoff 1 μM memantine (hGluN1-4a/hGluN2A; [29]): 510.08 ± 40.38 ms
τon 1 μM memantine (hGluN1-4a/hGluN2A; [30]): 440.47 ± 39.77 ms
neuronal death [10]: reduced neuronal death
h (Hill coefficient), memantine (hGluN1-4a/hGluN2B [11]; [28]): 1.04 ± 0.03
τoff 1 μM memantine (hGluN1-4a/hGluN2B [11]; [29]): 758.93 ± 49.66 ms
τon 1 μM memantine (hGluN1-4a/hGluN2B [11]; [30]): 708.99 ± 49.40 ms
h (Hill coefficient), memantine (hGluN1-4a-C744Y/hGluN2B; [28]): 0.86 ± 0.05
τoff 1 μM memantine (hGluN1-4a-C744Y/hGluN2B; [29]): 811.87 ± 56.87 ms
τon 1 μM memantine (hGluN1-4a-C744Y/hGluN2B; [30]): 519.40 ± 26.19 ms
h (Hill coefficient), memantine (hGluN1-4a-C744Y/hGluN2A; [28]): 0.94 ± 0.06
τoff 1 μM memantine (hGluN1-4a-C744Y/hGluN2A; [29]): 458.37 ± 83.04 ms
τon 1 μM memantine (hGluN1-4a-C744Y/hGluN2A; [30]): 292.14 ± 24.73 ms

N[C@@H](CCC(=O)O)C(=O)O [L-glutamate]
EC50 (GluN1-C455S/GluN2B; read-out: EC50 L-glutamate): 3000 nM
EC50 ([2]; read-out: EC50 value for L-glutamate): 1100 nM
EC50 (GluN1-C436S/GluN2B; read-out: EC50 L-glutamate): 3000 nM
L-glutamate h (Hill coefficient) (YFP-hGluN1-1a/hGluN2A; YFP-hGluN1-1a/hGluN2A, −60 mV): 1.36 ± 0.10
L-glutamate h (Hill coefficient) ([3]; YFP-hGluN1-1a-C744Y/hGluN2B, −60 mV): 0.89 ± 0.05
L-glutamate h (Hill coefficient) (YFP-hGluN1-1a/hGluN2B; YFP-hGluN1-1a/hGluN2B, −60 mV): 1.06 ± 0.06
EC50 (GluN1-C454S/GluN2B; read-out: EC50 L-glutamate): 1700 nM
L-glutamate h (Hill coefficient) ([4]; YFP-hGluN1-1a-C744Y/hGluN2A, −60 mV): 1.33 ± 0.09

C[C@]12N[C@H](Cc3ccccc31)c1ccccc12 [MK-801, Dizocilpine]
τon-MK-801 [12]: 2,040.87 ± 282.26 ms
τon-MK-801 (YFP-GluN1-1a/GluN2B): 2,053.21 ± 117.07 ms
τon-MK-801 [13]: 910.61 ± 85.39 ms
τon-MK-801 (YFP-GluN1-1a/GluN2A): 1,178.37 ± 93.82 ms
τon-MK-801 [14]: 1,038.07 ± 140.54 ms
τon-MK-801 (YFP-hGluN1-1a/hGluN2A): 789.63 ± 58.54 ms
τon-MK-801 [3]: 846.35 ± 52.08 ms
τon-MK-801 (YFP-hGluN1-1a/hGluN2B): 2,008.90 ± 224.76 ms
τon-MK-801 [15]: 486.89 ± 100.90 ms
τon-MK-801 [16]: 345.28 ± 25.68 ms
τon-MK-801 [17]: 3,010.09 ± 193.67 ms
τon-MK-801 [18]: 1,109.06 ± 65.15 ms
τon-MK-801 [19]: 2,612.49 ± 167.91 ms
τon-MK-801 [20]: 987.68 ± 105.05 ms
τon-MK-801 [21]: 3,355.73 ± 243.72 ms
τon-MK-801 [22]: 937.85 ± 78.10 ms
τon-MK-801 [4]: 240.25 ± 29.53 ms
τon-MK-801 [23]: 1,045.30 ± 112.94 ms
τon-MK-801 (GluN1-4a/GluN2B): 2,307.47 ± 151.45 ms
τon-MK-801 [24]: 765.01 ± 74.13 ms
τon-MK-801 (GluN1-4a/GluN2A): 981.54 ± 19.11 ms
τon-MK-801 [25]: 1,988.70 ± 356.79 ms
τon-MK-801 [26]: 278.04 ± 55.79 ms
